Measurements reported in patent US8436043B2 (Takeda Pharmaceutical Company Limited, priority 2008, dated 2013).

Legend:
[1] = system: glucagon-induced blood glucose increase; assay: Suppressive action test for glucagon-induced blood glucose increase (rat); type: in vivo; details: SD rats male, 10 mg/kg oral, glucagon 15 μg/kg s.c. 60 min later, blood glucose 20 min after glucagon
Description: Suppressive Action Test for Glucagon-Induced Blood Glucose Increase (Rat)
Full feeding SD rats (male, 7- to 9-week-old) were fasted, 0.5% methylcellulose suspension containing a test compound (10 mg/kg body weight) (compound administration group, 5 rats per group) or 0.5% methylcellulose suspension (compound non-administration group, 12 rats, per group) was orally administered, and 60 min later, glucagon (15 μg/kg body weight, Novo Nordisk Pharma Ltd.) was subcutaneously administered. At 20 min from the glucagon administration, blood samples were collected from the rat tail vein and the blood glucose was measured using a self-testing glucose kit ACCU-CHEK (Roche Diagnostics K.K.). In addition, as a non-treatment group (5 rats per group), the blood glucose of rat (compound non-treatment group) free of glucagon administration was measured in the same manner as above.
The difference between the blood glucose of compound non-administration group or compound administration group and the blood glucose of non-treatment group was calculated. The percentage of “the difference between blood glucose of compound administration group and blood glucose of non-treatment group” was obtained as “blood glucose increase rate (% of control)” where “the difference between blood glucose of compound non-administration group and that of non-treatment group” is 100%.

human glucagon receptor = molecular target: T1, human glucagon receptor (Homo sapiens, UniProt P47871); assay: Glucagon binding inhibitory activity ([125I]-glucagon binding to glucagon receptor membrane protein); details: for IC50: human glucagon receptor membrane protein, [125I]-glucagon, 90 min room temperature; for inhibition at 10 µM: read-out: inhibitory rate (%) at 10 μM
T1 construct: made in house; host or cells: FreeStyle CHO cells, transient transfection with pMSRαneo/hGCGR; membrane fraction (35,000 rpm pellet)
How it was run: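 Receptor source was a membrane fraction of transiently transfected CHO cells bearing human receptor; 90 min room-temperature binding, filtration harvest, scintillation counting.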

[2] = test compound 10 μM, 0.4% DMSO = 0%, non-labeled glucagon 1 μM = 100%

T1 sequence (P47871 26-477): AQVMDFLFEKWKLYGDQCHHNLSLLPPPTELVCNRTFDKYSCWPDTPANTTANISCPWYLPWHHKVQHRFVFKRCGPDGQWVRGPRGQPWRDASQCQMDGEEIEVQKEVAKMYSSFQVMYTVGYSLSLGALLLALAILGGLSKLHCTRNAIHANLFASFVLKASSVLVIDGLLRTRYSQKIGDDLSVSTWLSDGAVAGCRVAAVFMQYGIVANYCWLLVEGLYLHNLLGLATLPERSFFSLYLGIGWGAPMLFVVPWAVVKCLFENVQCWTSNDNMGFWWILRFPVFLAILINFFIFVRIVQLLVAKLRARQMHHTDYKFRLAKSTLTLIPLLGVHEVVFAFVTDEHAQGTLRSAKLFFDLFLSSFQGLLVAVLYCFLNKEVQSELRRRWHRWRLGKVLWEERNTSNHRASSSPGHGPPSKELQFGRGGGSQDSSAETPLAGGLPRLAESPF

| inhibition at 10 µM (human glucagon receptor; [2]) [%] | SMILES | further results |
| --- | --- | --- |
| 83 | Cc1c(C(Nc2ccc(C(=O)N(C)CCC(=O)O)cn2)C2CCCCC2)oc2ccc(F)cc12 (single isomer, unassigned) [Example A53, 3-{[(6-{[cyclohexyl(5-fluoro-3-methyl-1-benzofuran-2-yl)methyl]amino}pyridin-3-yl)carbonyl](methyl)amino}propanoic acid] | blood glucose increasing rate (% of control) [1]: 27.4 % of control; IC50 (human glucagon receptor): 570 nM |
| 87 | CCC(CC)C(Nc1ccc(C(=O)N(C)CCC(=O)O)cc1)c1oc2ccc(F)cc2c1C (single isomer, unassigned) [Example A73, 3-{[(4-{[2-ethyl-1-(5-fluoro-3-methyl-1-benzofuran-2-yl)butyl]amino}phenyl)carbonyl](methyl)amino}propanoic acid] | blood glucose increasing rate (% of control) [1]: 24.2 % of control; IC50 (human glucagon receptor): 900 nM |
| 93 | Cc1c(C(Nc2ccc(C(=O)N(C)CCC(=O)O)cc2)C2CCCCC2)oc2ccc(OC3CCOCC3)cc12 (single isomer, unassigned) [Example A83, 3-[{[4-({cyclohexyl[3-methyl-5-(tetrahydro-2H-pyran-4-yloxy)-1-benzofuran-2-yl]methyl}amino)phenyl]carbonyl}(methyl)amino]propanoic acid] | blood glucose increasing rate (% of control) [1]: 43.0 % of control; IC50 (human glucagon receptor): 84 nM |
| – | Cc1c(C(Nc2ccc(C(=O)N(C)CCC(=O)O)cc2)C2CCCCC2)oc2ccccc12 (stereo not drawn) [Example A41] | blood glucose increasing rate (% of control) [1]: 16.6 % of control; inhibitory rate (%) at 10 μM (human glucagon receptor; [2]): 86% |
| 86 | Cc1c(C(Nc2ccc(C(=O)NCCC(=O)O)cc2)C2CCCC2)oc2ccc(F)cc12 (stereo not drawn) [Example A190, 3-{[(4-{[cyclopentyl(5-fluoro-3-methyl-1-benzofuran-2-yl)methyl]amino}phenyl)carbonyl]amino}propanoic acid] | – |
| 82 | CCC(CC)C(Nc1ccc(C(=O)NCCC(=O)O)cc1)c1oc2ccc(F)cc2c1C (stereo not drawn) [Example A191, 3-{[(4-{[2-ethyl-1-(5-fluoro-3-methyl-1-benzofuran-2-yl)butyl]amino}phenyl)carbonyl]amino}propanoic acid] | – |
| 72 | Cc1c(C(Nc2ccc(C(=O)N(C)CCC(=O)O)cc2)C(C)C)oc2ccc(F)cc12 (stereo not drawn) [Example A192] | – |
| 80 | Cc1c(C(Nc2ccc(C(=O)NCCC(=O)O)cc2)C(C)C)oc2ccc(F)cc12 (stereo not drawn) [Example A193, 3-{[(4-{[1-(5-fluoro-3-methyl-1-benzofuran-2-yl)-2-methylpropyl]amino}phenyl)carbonyl]amino}propanoic acid] | – |
| 88 | Cc1cc(COc2ccc3oc(C(Nc4ccc(C(=O)N(C)CCC(=O)O)cc4)C4CCCCC4)c(C)c3c2)no1 (stereo not drawn) [Example A194, 3-[({4-[(cyclohexyl{3-methyl-5-[(5-methylisoxazol-3-yl)methoxy]-1-benzofuran-2-yl}methyl)amino]phenyl}carbonyl)(methyl)amino]propanoic acid] | – |
| 84 | Cc1c(C(Nc2ccc(C(=O)N(C)CCC(=O)O)cc2)C2CCCCC2)oc2ccc(OCC(C)(C)O)cc12 (stereo not drawn) [Example A195, 3-[{[4-({cyclohexyl[5-(2-hydroxy-2-methylpropoxy)-3-methyl-1-benzofuran-2-yl]methyl}amino)phenyl]carbonyl}(methyl)amino]propanoic acid] | – |
| 87 | Cc1c(C(Nc2ccc(C(=O)N(C)CCC(=O)O)cc2)C2CCCCC2)oc2ccc(OCC3(C)COC3)cc12 (stereo not drawn) [Example A196, 3-[({4-[(cyclohexyl{3-methyl-5-[(3-methyloxetan-3-yl)methoxy]-1-benzofuran-2-yl}methyl)amino]phenyl}carbonyl)(methyl)amino]propanoic acid] | – |
| 87 | Cc1c(C(Nc2ccc(C(=O)N(C)CCC(=O)O)cc2)C2CCCCC2)oc2ccc(Oc3ncccc3C#N)cc12 (stereo not drawn) [Example A198, 3-{[(4-{[{5-[(3-cyanopyridin-2-yl)oxy]-3-methyl-1-benzofuran-2-yl}(cyclohexyl)methyl]amino}phenyl)carbonyl](methyl)amino}-propanoic acid] | – |
| 88 | Cc1c(C(Nc2ccc(C(=O)N(C)CCC(=O)O)cc2)C2CCCCC2)oc2ccc(OC3CCS(=O)(=O)CC3)cc12 (stereo not drawn) [Example A199, 3-[({4-[(cyclohexyl{5-[(1,1-dioxidotetrahydro-2H-thiopyran-4-yl)oxy]-3-methyl-1-benzofuran-2-yl}methyl)amino]phenyl}carbonyl)(methyl)amino]propanoic acid] | – |
| 89 | Cc1c(C(Nc2ccc(C(=O)N(C)CCC(=O)O)cc2)C2CCCCC2)oc2ccc(Oc3ccccn3)cc12 (stereo not drawn) [Example A200, 3-[{[4-({cyclohexyl[3-methyl-5-(pyridin-2-yloxy)-1-benzofuran-2-yl]methyl}amino)phenyl]carbonyl}(methyl)amino]propanoic acid] | – |
| 86 | Cc1c(C(Nc2ccc(C(=O)N(C)CCC(=O)O)cc2)C2CCCCC2)oc2ccc(Oc3ccc(C#N)cn3)cc12 (stereo not drawn) [Example A202, 3-{[(4-{[{5-[(5-cyanopyridin-2-yl)oxy]-3-methyl-1-benzofuran-2-yl}(cyclohexyl)methyl]amino}phenyl)carbonyl](methyl)amino}-propanoic acid] | – |
| 86 | Cc1c(C(Nc2ccc(C(=O)N(C)CCC(=O)O)cc2)C(C)C)oc2ccc(OC3CCSCC3)cc12 (stereo not drawn) [Example A204, 3-(methyl{[4-({2-methyl-1-[3-methyl-5-(tetrahydro-2H-thiopyran-4-yloxy)-1-benzofuran-2-yl]propyl}amino)phenyl]carbonyl}amino)propanoic acid] | – |
| 70 | Cc1c(C(Nc2ccc(C(=O)N(C)CCC(=O)O)cc2)C(C)C)oc2ccc(Oc3ccc(C(F)(F)F)cn3)cc12 (stereo not drawn) [Example A206, 3-{methyl[(4-{[2-methyl-1-(3-methyl-5-{[5-(trifluoromethyl)pyridin-2-yl]oxy}-1-benzofuran-2-yl)propyl]amino}phenyl)carbonyl]amino}propanoic acid] | – |
| 83 | Cc1c(C(Nc2ccc(C(=O)N(C)CCC(=O)O)cc2)C2CCCC2)oc2c(F)cc(F)cc12 (stereo not drawn) [Example A208, 3-{[(4-{[cyclopentyl(5,7-difluoro-3-methyl-1-benzofuran-2-yl)methyl]amino}phenyl)carbonyl](methyl)amino}propanoic acid] | – |
| 90 | Cc1c(C(Nc2ccc(C(=O)N(C)CCC(=O)O)cc2)C2CCCCC2)oc2ccc(OCC3CCCO3)cc12 (stereo not drawn) [Example A209, 3-[{[4-({cyclohexyl[3-methyl-5-(tetrahydrofuran-2-ylmethoxy)-1-benzofuran-2-yl]methyl}amino)phenyl]carbonyl}(methyl)amino]propanoic acid] | – |
| 70 | Cc1c(C(Nc2ccc(C(=O)N(C)CCC(=O)O)cn2)C(C)C)oc2ccc(OCC3CC3)cc12 (stereo not drawn) [Example A211, 3-[{[6-({1-[5-(cyclopropylmethoxy)-3-methyl-1-benzofuran-2-yl]-2-methylpropyl}amino)pyridin-3-yl]carbonyl}(methyl)amino]propanoic acid] | – |
| 70 | Cc1c(C(Nc2ccc(C(=O)N(C)CCC(=O)O)nc2)C(C)C)oc2ccc(OCC3CC3)cc12 (stereo not drawn) [Example A213, 3-[{[5-({1-[5-(cyclopropylmethoxy)-3-methyl-1-benzofuran-2-yl]-2-methylpropyl}amino)pyridin-2-yl]carbonyl}(methyl)amino]propanoic acid] | – |
| 75 | COc1c(C(Nc2ccc(C(=O)N(C)CCC(=O)O)cc2)C2CCCCC2)oc2ccc(F)cc12 (stereo not drawn) [Example A214, 3-{[(4-{[cyclohexyl(5-fluoro-3-methoxy-1-benzofuran-2-yl)methyl]amino}phenyl)carbonyl](methyl)amino}propanoic acid] | – |
| 72 | COc1ccc2c(C(Nc3ccc(C(=O)N(C)CCC(=O)O)cc3)C3CCCCC3)c(C)oc2c1 (stereo not drawn) [Example A215, 3-{[(4-{[cyclohexyl(6-methoxy-2-methyl-1-benzofuran-3-yl)methyl]amino}phenyl)carbonyl](methyl)amino}propanoic acid] | – |
